US20110021621A1, “Drug for treating circulatory insufficiency” (ACTIVUS PHARMA CO., LTD., priority 2005, published 2011)
Like-named read-outs stand apart in the source and are kept apart here.

Key:
[1] = test system: circulatory insufficiency model of rats induced by injection of lauric-acid into their femoral artery; assay: Circulatory insufficiency model induced by lauric-acid in rats (lesion index); format: in vivo, rat; set-up: key: summed toe lesion grades, +5 if heel reached; max 25 points; settings: male Wistar rats, average, max 25 points; for Lesion Index after 10 days: 30 mg/kg multiple oral dosing (1 h prior to and 3 h after lauric-acid, then twice daily for 9 days), 10 days after lauric-acid injection; for Lesion Index after 3 days: 30 mg/kg multiple oral dosing (1 h prior to and 3 h after lauric-acid, then twice daily), 3 days after lauric-acid injection
Method: We performed this test in order to evaluate the pharmacological effect of the compounds of the present invention using a circulatory insufficiency model of rats induced by injection of lauric-acid into their femoral artery.
13-week-old male Wistar rats (body weight is 280 to 316 g), 8 rats per one group, were used. The rats were held in a supine position under anesthesia due to administration of 40 mg/kg of sodium pentobarbital by intraperitoneal injection. Then, the right femoral area was incised, thereby injecting 0.15 mL of 10 mg/mL lauric-acid solution into the femoral artery in order to induce lower limb gangrene caused by the peripheral vascular disorder. A few drops of instant adhesive (Aron-alpha; registered trademark) were used to stop bleeding, followed by topical application of antibiotics (potassium penicillin G solution) to prevent infection, and the incision site was then sutured.
The suspension was administered, by means of multiple oral dosing, 1 hour prior to and 3 hours after injection of lauric-acid and twice daily (at 10:00 and 17:00) for the following 9 days, at the dose of 30 mg/kg for each compound. […] The suspension was administered orally 3 hours prior to injection of lauric-acid at the dose of 300 mg/kg.
The extent of lesions was evaluated 3 days and 10 days after injection of lauric acid by the following criteria:
The lesion of each toe was graded and the total points of 5 toes were use as a lesion index, wherein 5 points were further added when the lesion reached the heel (i.e. the maximum lesion index was 25 points).
The shown number refers to the average value of the lesion index obtained from the evaluation.

[2] = Stability test in acidic or basic solution (half-life by liquid chromatography); format: physicochemical; settings: time to 50% residual rate
Method: The test compounds were dissolved in an acidic solution (phosphate buffer (pH3.4)) and in a basic solution (phosphate buffer (pH7.3)) at the concentration of 1 mmoL/L. Immediately after they were dissolved, each solution was analyzed with liquid chromatography using an acidic solution (phosphate buffer (pH3.4)) or basic solution (phosphate buffer (pH7.3)) as an eluent. The peak area of the test compounds was measured as the initial value. Furthermore, a time-course analysis with liquid chromatograpy was conducted to measure the peak area at each time point. The solution containing the test compound was kept in an incubator at 37° C. Based on the measured peak area of the test compounds, the percentage (%) of the peak area at each measurement time point was calculated, taking the peak area of the initial value as 100(%). The half-life (the time to show a 50% residual rate of the test compounds) of the test compounds was further calculated, and its stability was evaluated based on the half-life.

half-life at 1 mmoL/L ([2]; phosphate buffer pH 3.4, 37° C., read-out: Half-life, pH 3.4 solution (converted))	half-life at 1 mmoL/L ([2]; phosphate buffer pH 7.3, 37° C., read-out: Half-life, pH 7.3 solution (converted))	SMILES	Lesion Index after 10 days [1]	Lesion Index after 3 days [1]
–	–	CCCCC(CC)Oc1c(O)c2c(OCCO)cccc2oc1=O (centres unmarked) [Compound 244]	7.4	3.5
–	–	CC(C)CCCOc1c(O)c2ccc(OCCO)cc2oc1=O [Compound 449]	7.3	2.8
–	–	CCCCCCOc1c(O)c2cc(OCCCC)ccc2oc1=O [Compound 98]	8.4	3.0
–	–	CCCCOc1c(O)c2c(OCCCO)cccc2oc1=O [Compound 261]	7.6	3.7
–	–	CCCCOc1c(O)c2c(OCC(=O)O)cccc2oc1=O [Compound 295]	7.2	3.0
–	–	CCCCCCCCOc1c(O)c2ccc(OCCCO)cc2oc1=O [Compound 468]	7.8	2.8
–	–	CCOc1c(O)c2ccc(O)cc2oc1=O [Compound 118]	8.3	2.4
–	–	CCCCCCOc1c(O)c2c(O)cccc2oc1=O [Compound 9]	7.8	2.5
–	–	CCCCCCOc1c(O)c2cccc(OCCCC)c2oc1=O [Compound 214]	7.9	3.5
–	–	CCCCCCOc1c(O)c2cccc(OCCO)c2oc1=O [Compound 547]	7.2	3.0
–	–	CCCCOc1c(O)c2ccc(O)cc2oc1=O [Compound 121]	7.3	2.8
–	–	CC(C)CCCOc1c(O)c2cccc(OCCO)c2oc1=O [Compound 551]	7.8	2.5
–	–	CCCCCCOc1c(O)c2cc(OCCC(O)CO)ccc2oc1=O (centres unmarked) [Compound 388]	7.5	2.9
–	–	CC(C)=CCCC(C)=CCOc1c(O)c2ccc(O)cc2oc1=O [Compound 141]	7.8	2.6
–	–	CCCCCCCCOc1c(O)c2cccc(OCCCC(=O)O)c2oc1=O [Compound 633]	7.4	2.6
–	–	CCC(CC)Oc1c(O)c2ccc(O)cc2oc1=O [Compound 124]	8.3	3.0
–	–	CCCCCCCCCCOc1c(O)c2ccc(OCC(O)CO)cc2oc1=O (centres unmarked) [Compound 485]	7.9	2.8

half-life at 1 mmoL/L ([2]; phosphate buffer pH 3.4, 37° C., read-out: Half-life, pH 3.4 solution (converted))	half-life at 1 mmoL/L ([2]; phosphate buffer pH 7.3, 37° C., read-out: Half-life, pH 7.3 solution (converted))	SMILES	Lesion Index after 10 days [1]	Lesion Index after 3 days [1]
–	–	CCCCCCCCOc1c(O)c2ccc(O)cc2oc1=O [Compound 131]	7.5	3.0
–	–	CCCCCCCCOc1c(O)c2c(OCCCCC(=O)O)cccc2oc1=O [Compound 333]	7.4	3.0
–	–	CCCCC(CC)Oc1c(O)c2ccc(OCC(=O)O)cc2oc1=O (centres unmarked) [Compound 506]	7.3	2.7
–	–	CC(C)Oc1c(O)c2ccc(O)cc2oc1=O [Compound 120]	8.0	2.3
–	–	CCCCCCCCOc1c(O)c2cc(OCCCC(=O)O)ccc2oc1=O [Compound 429]	7.9	2.2
35 h	65 h	O=c1oc2ccc(-c3ccccc3)cc2c(O)c1O [C, reference compound]	–	–
–	–	CCCCCOc1c(O)c2ccc(O)cc2oc1=O [Compound 123]	7.9	2.6
–	–	CCCCOc1c(O)c2cccc(O)c2oc1=O [Compound 179]	8.4	3.6
–	–	CCCCCCC=COc1c(O)c2cccc(O)c2oc1=O [Compound 196]	7.4	3.3
–	–	CCCCCCCCOc1c(O)c2c(OCC(O)CO)cccc2oc1=O (centres unmarked) [Compound 280]	7.9	2.7
–	–	CCCCOc1c(O)c2c(OCCO)cccc2oc1=O [Compound 237]	7.9	3.4
–	–	CC(C)=CCCC(C)=CCOc1ccc2c(O)c(OCC=C(C)CCC=C(C)C)c(=O)oc2c1 [Compound 174]	7.5	2.7
–	–	CCCCCCCCOc1c(O)c2ccc(OCCC(O)CO)cc2oc1=O (centres unmarked) [Compound 491]	7.4	2.9
–	–	CC(C)CCCOc1c(O)c2cc(OCCO)ccc2oc1=O [Compound 347]	8.1	2.3
–	–	CCCCC(CC)Oc1c(O)c2ccc(OCCCCO)cc2oc1=O (centres unmarked) [Compound 477]	7.7	2.9
–	–	CCCCCCOc1c(O)c2cc(O)ccc2oc1=O [Compound 67]	7.5	2.8
–	–	CCCOc1c(O)c2ccc(O)cc2oc1=O [Compound 119]	7.1	2.5
